Laboratory results published in patent US4025528A, “Thiazole derivatives of benzoic and phenylalkanoic acids” (Shionogi & Co., Ltd., priority 1973, dated 1977).
Where two headings read alike, the source gives them in different places.

Tests used:
[1] = tested on: Wistar rat; assay: Foot-licking Method (formaldehyde); assay type: in vivo
Experimental: Thirty minutes after oral administration of a test drug in Wistar rat (180-200 g, female), the effect of the compound on foot-licking syndrome due to irritation by a subcutaneous injection of 0.05 ml of 3.75% formaldehyde into the plantar tissue of the hind-paw is observed for 50 minutes. The ED50 is calculated by the method of Litchfield and Wilcoxon.

[2] = tested on: DS mice; assay: Acetic Acid Writhing Method; assay type: in vivo; settings: Mus musculus, read-out: Acetic Acid Writhing ED (50%)
Experimental: 6. Acetic Acid Writhing Method
DS mice (20-23 g, male) are treated with an intraperitoneal injection of 0.1 ml/10 g of 0.6% acetic acid 60 minutes after oral administration of a test drug. The number of times of writhing for 10 minutes is counted. The ED50 is calculated by the Bliss' method.

[3] = tested on: Wistar rat; assay: Effect on Adjuvant Arthritis; assay type: in vivo; settings: 120 h
Experimental: 5. Effect on Adjuvant Arthritis
A test compound is orally administered to the arthritic rat twice a day for 5 consecutive days. Five hours after the final medication the change in swelling volume of the arthritic foot is measured. The ED30 is calculated by the Bliss' method.

[4] = tested on: Wistar rat; assay: Anti-granuloma Activity (carrageenin filterpaper); assay type: in vivo; settings: 168 h
Experimental: 3. Anti-granuloma Activity
Two circular pieces of filterpaper about 6 mm in diameter, soaking 90 mg of 5% carrageenin solution, are implanted subcutaneously in the abdominal skin of Wistar rat (180-200 g, female). A test drug is orally given once a day for 6 consecutive days. On the 7th day the animals are killed and the amount of granulation tissue deposited, the adrenals and the thymus are weighed. The ED25 is calculated by the Bliss' method.

[5] = tested on: Wistar rats; assay: Anti-abscess Activity (carrageenin); assay type: in vivo, Wistar rat; settings: Rattus norvegicus, read-out: Anti-abscess ED (25%)
Experimental: Carrageenin (2% aqueous solution, 0.5 ml) is subcutaneously injected into the back of Wistar rats (180-200 g, female) and at the same time one-half dose of a test compound is orally given, the other half given 3 hours later. The animals are sacrificed 24 hours after carrageenin and the abscess formed is isolated and weighed. The ED25 is calculated by the Bliss' method.

[6] = tested on: Wister rat; assay: Anti-pyretic Activity (yeast); assay type: in vivo; settings: read-out: Anti-pyretic Activity, dose by which body temperature is reduced 0.5° C.
Experimental: 11. Anti-pyretic Activity
A test compound is orally administered to Wister rat (180-200 g, female) 16 hours after an injection of 2 ml of 15% suspension of yeast into the subcutaneous tissue of the hip of the rat. The rectal temperature is measured every 1 hour for 5 hours. The effective dose is calculated by the Bliss' method.

[7] = in vivo; settings: mouse, po
[8] = tested on: guinea-pig; assay: Anti-erythema Activity (ultraviolet light); assay type: in vivo
Experimental: 4. Anti-erythema Activity
The hair on the back of guinea-pig (300-400 g, male and female) is removed on the day before experiment. Thirty minutes after oral administration of a test drug, 3 circular areas (8 mm in diameter each) on the back of the animal are exposed to ultraviolet light for 60 seconds. Anti-erythema activity is evaluated at 2 hours after irradiation. The ED50 is calculated by Up and Down method of Brownlee et al. [J. Am. Stat. Assoc.

[9] = tested on: Wistar rat; assay: Effect of Scald-inflamed Foot; assay type: in vivo; settings: 1.5 h, read-out: Scald-inflamed Foot ED (100%)
Experimental: 7. Effect of Scald-inflamed Foot
A test drug is administered orally 90 minutes after scalding and the analgesic activity is evaluated by compressing the foot with a plunger.

[10] = tested on: Wistar rat; assay: Effect on Yeast-inflamed Foot; assay type: in vivo; settings: 2 h, oral, pain threshold two hours later, ED 100%
Experimental: 8. Effect on Yeast-inflamed Foot
A test compound is orally given Wistar rat (180-200 g, female) immediately before subcutaneous injection of 0.1 ml of 20% yeast suspension into the plantar tissue of the foot. Two hours later, the pain threshold is measured by comprissing the foot with a plunger and calculated by the method of Litchfield and Wilcoxon.

[11] = tested on: Wistar rats; assay: Anti-edema Activity (carrageenin foot edema); assay type: in vivo, Wistar rat; settings: Rattus norvegicus, read-out: Anti-edema ED (30%)
Experimental: An aqueous solution of 1% carrageenin (0.05 ml) is used as phlogistic agent. After 30 minutes Wistar rats (180-200 g, female) are orally administered test compounds, the phalogistic agent is injected subcutaneously into the plantar parts of the foot of rats. The volume of swelling is measured 3 hours after carrageenin, and the anti-edema activity is determined by calculating the ratio of the edematous volume of medicated foot to that of non-medicated foot. […]

[12] = in vivo; settings: rat, po
[13] = oral, thirty minutes before formaldehyde, ED50, read-out: Footlicking ED (50%)
[14] = oral, 60 minutes before 0.6% acetic acid i.p., ED50
[15] = oral twice a day for 5 days, ED30, read-out: Arthritis ED (30%)
[16] = oral once a day for 6 days, ED25, read-out: Anti-granuloma ED (25%)
[17] = oral, two half doses, 24 hours after carrageenin, ED25
[18] = oral, 16 hours after yeast injection
[19] = Cavia porcellus, light or radiation study, po, 2 h; read-out: Anti-erythema ED (50%)
[20] = oral, 90 minutes after scalding, pain threshold, ED 100%
[21] = oral, swelling 3 hours after carrageenin, ED 30%

**Q.** For `CC(=O)Oc1ccccc1C(=O)O` [Acetylsalicylic Acid, acetylsalicylic acid], which ED50 ([1]; po, read-out: Footlicking ED (50%)) is on record?
**A.** Its ED50 is 580 mg/kg.

**Q.** And the ED50 ([2]; po)?
**A.** Its ED50 is 180 mg/kg.

**Q.** And the ED30 ([3]; po, read-out: Arthritis ED (30%))?
**A.** The ED30 was 100 mg/kg.

**Q.** And the ED25 ([4]; po, read-out: Anti-granuloma ED (25%))?
**A.** The ED25 was > 500 mg/kg.

**Q.** What about the ED25 ([5]; po, 24 h) of the same molecule?
**A.** Its ED25 is 175 mg/kg.

**Q.** And the ED (0.5 degC reduction) ([6]; po, 16 h)?
**A.** Its ED (0.5 degC reduction) is 14 mg/kg.

**Q.** What about the LD50 at 72 h [7] of the same molecule?
**A.** Its LD50 at 72 h is 2000 mg/kg.

**Q.** And the ED50 ([8]; Cavia porcellus, light or radiation study, po, 2 h, read-out: Anti-erythema ED (50%))?
**A.** Its ED50 is 79 mg/kg.

**Q.** What about the ED100 ([9]; po) of the same molecule?
**A.** The ED100 was 260 mg/kg.

**Q.** And the ED100 [10]?
**A.** Its ED100 is 250 mg/kg.

**Q.** What about the ED30 ([11]; po, 3 h) of the same molecule?
**A.** The ED30 was 48 mg/kg.

**Q.** What about the LD50 at 72 h [12] of the same molecule?
**A.** Its LD50 at 72 h is 2400 mg/kg.

**Q.** What does the source list for `Cc1nc(Oc2ccccc2)sc1C(C)C(=O)O` (centres unmarked) [Example 48-140, calcium 2-(2-phenoxy-4-methyl-5-thiazolyl)propionate]?
**A.** ED50 [1, 13]: 130 mg/kg; ED50 [2, 14]: 180 mg/kg; ED30 [3, 15]: 20 mg/kg; ED25 [4, 16]: 230 mg/kg; ED25 [5, 17]: 60 mg/kg; ED (0.5 degC reduction) [6, 18]: 23 mg/kg; LD50 at 72 h [7]: 1190 mg/kg; ED50 [8, 19]: 27 mg/kg; ED100 [9, 20]: > 500 mg/kg; ED100 [10]: 110 mg/kg; ED30 [11, 21]: 14 mg/kg; LD50 at 72 h [12]: 1200 mg/kg

**Q.** With `CC(C(=O)O)c1ccc(Oc2nccs2)cc1` (centres unmarked) [Example 48-156, 2-[4-(2-thiazolyloxy)phenyl]propionic acid] as the molecule, how does the ED50 [1, 13] read?
**A.** The ED50 was 175 mg/kg.

**Q.** What about the ED50 [2, 14] of the same molecule?
**A.** The ED50 was 20 mg/kg.

**Q.** And the ED30 [3, 15]?
**A.** Its ED30 is 4.2 mg/kg.

**Q.** And the ED25 [4, 16]?
**A.** The ED25 was 13 mg/kg.

**Q.** And the ED25 [5, 17]?
**A.** The ED25 was 6.4 mg/kg.

**Q.** What about the ED (0.5 degC reduction) [6, 18] of the same molecule?
**A.** Its ED (0.5 degC reduction) is 4 mg/kg.

**Q.** And the ED50 [8, 19]?
**A.** Its ED50 is 20 mg/kg.

**Q.** And the ED100 [9, 20]?
**A.** Its ED100 is 77 mg/kg.

**Q.** What about the ED100 [10] of the same molecule?
**A.** The ED100 was 28 mg/kg.

**Q.** And the ED30 [11, 21]?
**A.** The ED30 was 3.8 mg/kg.

**Q.** Which results are given for `CCCCC1C(=O)N(c2ccccc2)N(c2ccccc2)C1=O` [Phenylbutazone, phenylbutazone]?
**A.** ED50 [1, 13]: 150 mg/kg; ED50 [2, 14]: 440 mg/kg; ED30 [3, 15]: 7.8 mg/kg; ED25 [4, 16]: 24 mg/kg; ED25 [5, 17]: 33 mg/kg; ED (0.5 degC reduction) [6, 18]: 3.8 mg/kg; ED50 [8, 19]: 26 mg/kg; ED100 [9, 20]: 240 mg/kg; ED100 [10]: 130 mg/kg; ED30 [11, 21]: 48 mg/kg
